What was measured:
Assay type in all cases: cell-based, human
cleaved/active caspase-3 = assay: Western blot for cleaved caspase-3 in OCSC transfected with scramble or c-Jun siRNA; conditions: 2.45 μM for 2 hours then recovery
Experimental: SDS-PAGE and Western blots were performed using 20 μg of total protein lysate as described in Kamsteeg, et al., 2003, Oncogene 22:2611-2620. Antibodies used were: mouse anti-phospho ERK (Santa Cruz Biotechnology, Inc., Dallas, Tex.); rabbit anti-phospho c-Jun, rabbit anti c-Jun, rabbit anti-ERK, rabbit anti-cleaved caspase 3 all from Cell Signaling Technology, Danvers, Mass.; and mouse anti-GAPDH (Sigma-Aldrich).
To determine the requirement for c-Jun activation in TRX-E-002-1-induced apoptosis, siRNA was used to knock-down c-Jun in chemoresistant OCSC. […] This upregulation was maintained, even when treatment was removed and cells were allowed to recover (FIG. 5C).

[1] = test system: OCSCs (CD44+/MyD88+ ovarian cancer stem cells); assay: OCSC growth, morphology, RFP+ cell count and Celltox cell death (kinetic live cell imaging)
Experimental: CD44+/MyD88+ ovarian cancer stem cell clones (OCSC1 and OCSC2) and CD44−/MyD88− ovarian cancer cells (OCC1 and OCC2) were isolated from either tumor tissue or ascites obtained from patients diagnosed with stage III/IV serous ovarian cancer and propagated (Alvero, et al., 2009, Cell Cycle 8:158-166; Chefetz, et al., 2013, Cell Cycle 12:511-521). The epithelial nature of the isolated cells was determined by immunostaining for Ck18. Purity of the cultures based on CD44 expression by flow cytometry and chemoresistance were routinely tested. Stable expression of nuclear-restricted red fluorescent (in OCSCs) or green fluorescent proteins (in OCCs) was performed by transduction using NUCLIGHT® Red or Green Lentivirus Reagent (Essen Bioscience, Ann Arbor, Mich.). Spheroids were formed from OCSCs by culturing in ultra-low attachment multi-well plates (Corning, Inc., Corning, N.Y.).
(§1) Effect of each compound on cell morphology, growth, and viability was assessed using a kinetic live cell imaging system (Incucyte, Essen Bioscience). Proliferation was calculated as previously described (Alvero, et al., 2011, Mol. Cancer Ther. 10:1385-1393) using metrics from either confluence or fluorescent count from nuclear-restricted RFP or GFP. Cell death was quantified; similarly CELLTOX® Green Cytotoxicity Assay (Promega, Madison, Wis.). IC50 was calculated as described using GraphPad Prism (GraphPad Software Inc., LaJolla, Calif.).
In vitro, conventional chemotherapeutic drugs had negligible effect on OCSC growth even in the μM range (FIG. 1B).
TRX-E-002 exists as a racemic mixture comprised of two enantiomers, enantiomer A (TRX-E-002-1) and enantiomer B (TRX-E-002-2). Thus, the enantiomers were separated and assessed separately. To distinguish between an analog's cytostatic or cytotoxic activity, OCSC clones that are stably transfected with nuclear-restricted RFP were used, which allows an accurate quantification of the number of cells and can be multiplexed with CELLTOX® assay to concomitantly measure the number of dead cells.

[2] = test system: OCC2 (CD44-/MyD88- ovarian cancer cells); assay: IC50 against chemosensitive ovarian cancer cells OCC2; conditions: read-out: IC50 (percentage of viable cells)
Experimental: CD44+/MyD88+ ovarian cancer stem cell clones (OCSC1 and OCSC2) and CD44−/MyD88− ovarian cancer cells (OCC1 and OCC2) were isolated from either tumor tissue or ascites obtained from patients diagnosed with stage III/IV serous ovarian cancer and propagated (Alvero, et al., 2009, Cell Cycle 8:158-166; Chefetz, et al., 2013, Cell Cycle 12:511-521). The epithelial nature of the isolated cells was determined by immunostaining for Ck18. Purity of the cultures based on CD44 expression by flow cytometry and chemoresistance were routinely tested. […]
as §1
Once the efficacy of TRX-E-002-1 against chemoresistant OCSC was established, its activity against two clones of chemosensitive ovarian cancer cells (OCC1 and OCC2) was determined.

Structure (SMILES): COc1cc(C2COc3c(ccc(O)c3C)C2c2ccc(O)cc2)cc(OC)c1O (single isomer, unassigned) [TRX-E-002-1]
- cleaved/active caspase-3 (cleaved/active caspase-3; c-Jun knocked-down by siRNA): not detectable
- cleaved/active caspase-3 (cleaved/active caspase-3; scramble siRNA): appearance of cleaved/active caspase-3
- number of nuclear RFP+ cells ([1]; RFP OCSC clones, TRX-E-002-1 beginning at the 0.245 μM dose, TRX-E-002-2 except for the very high dose of 10 μM): significant decrease
- number of Celltox-positive cells ([1]; beginning at the 0.245 μM dose): concomitant increase
- IC50 [2]: 27 nM
